# Measurements taken from US4388311A, “Method for the induction of menses” (G. D. Searle & Co., priority 1982, dated 1983).
# Several values for one entry are separate records, joined by “and”; a condition that tells them apart may be missing. Equal values may be shown once.
# Tests used:
# pregnancy in rats [1] = assay: Pregnancy termination in rats, compounds administered intragastrically for four days (Table 1); type: in vivo, rat; settings: for Serum Progesterone ng/ml + S.E. / Serum Progesterone (Percent Control): serum day 11, 24 hours after initial injection
# Method: (§1) The following tables list the results for a compound of Formula IV as compared with a control of previously known 2α-cyano-17β-hydroxy-3-oxo-4,4,17α-trimethylandrost-5-end(Cyanoketone) for termination of pregnancy.
# ^1 Compounds were administered intragastrically once daily on days 10
# through 13 of pregnancy in a vehicle consisting of PEG400, propylene
# glycol and 100 percent ethanol (50:40:10, v:v:v). Serum for progesterone
# determination was drawn on day 11 of pregnancy, 24 hours after the initia
# injection of compound. The animals were autopsied on day 14 of pregnancy.
# pregnancy in rats [2] = assay: Termination of pregnancy in rats, compounds administered subcutaneously (Table 2); type: in vivo, rat; settings: for Serum Progesterone (Percent Control) / Serum Progesterone ng/ml + S.E.: serum day 11, 24 hours after initial injection
# Method: as §1
# ^1 Compounds given subcutaneously in corn oil vehicle once daily on
# days 10 through 13 of pregnancy. Serum for progesterone determination was
# drawn on day 11 of pregnancy, 24 hours after the initial injection of
# compound. The animals were autopsied on day 14 of pregnancy.
# ^2 Serum progesterone values determined by RIA at Interlab Associates
# [3] = 1 mg/kg/day intragastrically once daily days 10-13 of pregnancy, autopsy day 14
# [4] = 2 mg/kg/day intragastrically days 10-13 of pregnancy
# [5] = 2 mg/kg/day intragastrically once daily days 10-13 of pregnancy, autopsy day 14
# [6] = 4 mg/kg/day intragastrically days 10-13 of pregnancy, 4 mg/kg/day
# [7] = 4 mg/kg/day intragastrically once daily days 10-13 of pregnancy, autopsy day 14, 4 mg/kg/day
# [8] = 8 mg/kg/day intragastrically days 10-13 of pregnancy
# [9] = 8 mg/kg/day intragastrically once daily days 10-13 of pregnancy, autopsy day 14
# [10] = 16 mg/kg/day intragastrically days 10-13 of pregnancy
# [11] = 16 mg/kg/day intragastrically once daily days 10-13 of pregnancy, autopsy day 14
# [12] = 32 mg/kg/day intragastrically days 10-13 of pregnancy
# [13] = 32 mg/kg/day intragastrically once daily days 10-13 of pregnancy, autopsy day 14
# [14] = 64 mg/kg/day intragastrically days 10-13 of pregnancy
# [15] = 64 mg/kg/day intragastrically once daily days 10-13 of pregnancy, autopsy day 14
# [16] = 128 mg/kg/day intragastrically days 10-13 of pregnancy
# [17] = 128 mg/kg/day intragastrically once daily days 10-13 of pregnancy, autopsy day 14
# [18] = 1 mg/kg/day subcutaneously days 10-13 of pregnancy
# [19] = 1 mg/kg/day subcutaneously in corn oil once daily days 10-13 of pregnancy, autopsy day 14
# [20] = 2 mg/kg/day subcutaneously days 10-13 of pregnancy
structure (smiles),measurement,setting,value
"CC1(C)C(=O)[C@H](C#N)C[C@@]2(C)C1=CC[C@@H]1[C@@H]2CC[C@@]2(C)[C@H]1CC[C@]2(C)O [Cyanoketone, 2α-cyano-17β-hydroxy-3-oxo-4,4,17α-trimethylandrost-5-end]",Serum Progesterone ng/ml + S.E.,pregnancy in rats [1]; 1 mg/kg/day intragastrically days 10-13 of pregnancy,47.3 + 3.5 ng/ml
same,Adrenal Wt. mg + SE,pregnancy in rats [1]; [3],74.9 + 4.1 mg
same,Fetal Viability: Normal Fetuses/Implantation Sites,pregnancy in rats [1]; [3],49/54
same,Fetal Viability: Normal Fetuses/Implantation Sites (Percent),pregnancy in rats [1]; [3],91%
same,Number of Rats Pregnant/Number of Rats Treated,pregnancy in rats [1]; [3],5/5
same,Number of Rats Pregnant/Number of Rats Treated (Percent),pregnancy in rats [1]; [3],100%
same,Serum Progesterone (Percent Control),pregnancy in rats [1]; [4],111 Percent Control
same,Serum Progesterone ng/ml + S.E.,pregnancy in rats [1]; [4],52.5 + 3.7 ng/ml
same,Adrenal Wt. mg + SE,pregnancy in rats [1]; [5],77.1 + 5.3 mg
same,Fetal Viability: Normal Fetuses/Implantation Sites,pregnancy in rats [1]; [5],61/84
same,Fetal Viability: Normal Fetuses/Implantation Sites (Percent),pregnancy in rats [1]; [5],73%
same,Number of Rats Pregnant/Number of Rats Treated,pregnancy in rats [1]; [5],6/7
same,Number of Rats Pregnant/Number of Rats Treated (Percent),pregnancy in rats [1]; [5],86%
same,Serum Progesterone (Percent Control),pregnancy in rats [1]; [6],75 Percent Control and 72 Percent Control
same,Serum Progesterone ng/ml + S.E.,pregnancy in rats [1]; [6],35.5 + 6.2 ng/ml and 33.8 + 3.8 ng/ml
same,Adrenal Wt. mg + SE,pregnancy in rats [1]; [7],75.0 + 3.5 mg and 76.9 + 3.7 mg
same,Fetal Viability: Normal Fetuses/Implantation Sites,pregnancy in rats [1]; [7],0/92 and 44/97
same,Number of Rats Pregnant/Number of Rats Treated,pregnancy in rats [1]; [7],1/8 and 5/8
same,Serum Progesterone (Percent Control),pregnancy in rats [1]; [8],64 Percent Control
same,Serum Progesterone ng/ml + S.E.,pregnancy in rats [1]; [8],30.2 + 3.8 ng/ml
same,Adrenal Wt. mg + SE,pregnancy in rats [1]; [9],65.7 + 2.5 mg
same,Fetal Viability: Normal Fetuses/Implantation Sites,pregnancy in rats [1]; [9],13/110
same,Fetal Viability: Normal Fetuses/Implantation Sites (Percent),pregnancy in rats [1]; [9],12%
same,Number of Rats Pregnant/Number of Rats Treated,pregnancy in rats [1]; [9],3/10
same,Number of Rats Pregnant/Number of Rats Treated (Percent),pregnancy in rats [1]; [9],30%
same,Serum Progesterone (Percent Control),pregnancy in rats [1]; [10],88 Percent Control
same,Serum Progesterone ng/ml + S.E.,pregnancy in rats [1]; [10],41.4 + 7.1 ng/ml
same,Adrenal Wt. mg + SE,pregnancy in rats [1]; [11],74.5 + 3.1 mg
same,Fetal Viability: Normal Fetuses/Implantation Sites,pregnancy in rats [1]; [11],25/103
same,Fetal Viability: Normal Fetuses/Implantation Sites (Percent),pregnancy in rats [1]; [11],24%
same,Number of Rats Pregnant/Number of Rats Treated,pregnancy in rats [1]; [11],4/10
same,Number of Rats Pregnant/Number of Rats Treated (Percent),pregnancy in rats [1]; [11],40%
same,Serum Progesterone (Percent Control),pregnancy in rats [1]; [12],67 Percent Control
same,Serum Progesterone ng/ml + S.E.,pregnancy in rats [1]; [12],31.5 + 6.7 ng/ml
same,Adrenal Wt. mg + SE,pregnancy in rats [1]; [13],66.4 + 3.3 mg
same,Fetal Viability: Normal Fetuses/Implantation Sites,pregnancy in rats [1]; [13],19/101
same,Fetal Viability: Normal Fetuses/Implantation Sites (Percent),pregnancy in rats [1]; [13],19%
same,Number of Rats Pregnant/Number of Rats Treated,pregnancy in rats [1]; [13],2/9
same,Number of Rats Pregnant/Number of Rats Treated (Percent),pregnancy in rats [1]; [13],22%
same,Serum Progesterone (Percent Control),pregnancy in rats [1]; [14],40 Percent Control
same,Serum Progesterone ng/ml + S.E.,pregnancy in rats [1]; [14],19.0 + 3.7 ng/ml
same,Adrenal Wt. mg + SE,pregnancy in rats [1]; [15],83.5 + 4.8 mg
same,Fetal Viability: Normal Fetuses/Implantation Sites,pregnancy in rats [1]; [15],24/128
same,Fetal Viability: Normal Fetuses/Implantation Sites (Percent),pregnancy in rats [1]; [15],19%
same,Number of Rats Pregnant/Number of Rats Treated,pregnancy in rats [1]; [15],2/11
same,Number of Rats Pregnant/Number of Rats Treated (Percent),pregnancy in rats [1]; [15],18%
same,Serum Progesterone (Percent Control),pregnancy in rats [1]; [16],94 Percent Control
same,Serum Progesterone ng/ml + S.E.,pregnancy in rats [1]; [16],44.3 + 5.3 ng/ml
same,Adrenal Wt. mg + SE,pregnancy in rats [1]; [17],72.0 + 2.5 mg
same,Fetal Viability: Normal Fetuses/Implantation Sites,pregnancy in rats [1]; [17],85/99
same,Fetal Viability: Normal Fetuses/Implantation Sites (Percent),pregnancy in rats [1]; [17],85%
same,Number of Rats Pregnant/Number of Rats Treated,pregnancy in rats [1]; [17],8/9
same,Number of Rats Pregnant/Number of Rats Treated (Percent),pregnancy in rats [1]; [17],89%
same,Serum Progesterone (Percent Control),pregnancy in rats [2]; [18],124 Percent Control
same,Serum Progesterone ng/ml + S.E.,pregnancy in rats [2]; [18],54.1 + 2.6 ng/ml
same,Adrenal Wt. mg + SE,pregnancy in rats [2]; [19],83.4 + 4.0 mg
same,Fetal Viability: Normal Fetuses/Implantation Sites,pregnancy in rats [2]; [19],80/82
same,Fetal Viability: Normal Fetuses/Implantation Sites (Percent),pregnancy in rats [2]; [19],98%
same,Number of Rats Pregnant/Number of Rats Treated,pregnancy in rats [2]; [19],7/7
same,Number of Rats Pregnant/Number of Rats Treated (Percent),pregnancy in rats [2]; [19],100%
same,Serum Progesterone (Percent Control),pregnancy in rats [2]; [20],94 Percent Control
same,Serum Progesterone ng/ml + S.E.,pregnancy in rats [2]; [20],40.8 + 2.2 ng/ml
